# Data taken from patent US20250228873A1, “C25 R AND S ISOMERS OF AMINOSTEROLS AND METHODS OF MAKING AND USING THE SAME” (Enterin, Inc., priority 2022, published 2025).
# Read-outs that look alike come from different tables or passages of the source.
# Tests used:
# stomach tissues = assay: Stomach RNA-sequencing, ENT-02 (MSI-1436) treatment and congruence with ENT-03 (Example 10); type: in vivo, mice; details: stomach RNA-seq
# Procedure: Samples of stomach tissues from the mice were analysed by RNA-sequencing on an Illumina platform.
# To achieve these aims, data were subject to a quality control evaluation, differential expression and functional enrichment analyses, as well as a congruence analysis.
# […] At this threshold, differentially expressed genes were identified in all contrasts.
# As mentioned previously, for statistical robustness, only those with an adjusted p-value <0.05 should be considered. […]
# The amount of overlap is represented in FIGS. 28A-28D. For each comparison, the value in the plot represents the number of intersecting selected genes and the color represents the Jaccard index (the intersection over the union) for the two contrasts under consideration.
# Scatter plots, upset plots, venn diagrams, hypergeometric tests and Spearman rank correlation tests were employed to assess the level of overlap as shown in FIGS. 15-27.
# [1] = molecular target: T1, PP2A Alpha/PP2R1A Complex (Homo sapiens, UniProt P67775); assay: Phosphatase panel, DiFMUP fluorescence assay; type: biochemical
# T1 construct: purchased Recation Biology Inc
# T1 sequence (P67775 whole entry): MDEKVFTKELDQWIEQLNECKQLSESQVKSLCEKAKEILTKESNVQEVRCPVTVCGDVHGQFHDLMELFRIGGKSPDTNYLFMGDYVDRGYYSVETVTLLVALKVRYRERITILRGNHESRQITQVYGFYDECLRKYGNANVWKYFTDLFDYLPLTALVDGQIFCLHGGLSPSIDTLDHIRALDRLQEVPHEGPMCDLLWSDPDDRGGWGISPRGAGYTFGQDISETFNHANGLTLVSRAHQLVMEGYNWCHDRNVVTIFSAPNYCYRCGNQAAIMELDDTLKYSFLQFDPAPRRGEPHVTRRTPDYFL
# T1 sequence (P30153 whole entry partner): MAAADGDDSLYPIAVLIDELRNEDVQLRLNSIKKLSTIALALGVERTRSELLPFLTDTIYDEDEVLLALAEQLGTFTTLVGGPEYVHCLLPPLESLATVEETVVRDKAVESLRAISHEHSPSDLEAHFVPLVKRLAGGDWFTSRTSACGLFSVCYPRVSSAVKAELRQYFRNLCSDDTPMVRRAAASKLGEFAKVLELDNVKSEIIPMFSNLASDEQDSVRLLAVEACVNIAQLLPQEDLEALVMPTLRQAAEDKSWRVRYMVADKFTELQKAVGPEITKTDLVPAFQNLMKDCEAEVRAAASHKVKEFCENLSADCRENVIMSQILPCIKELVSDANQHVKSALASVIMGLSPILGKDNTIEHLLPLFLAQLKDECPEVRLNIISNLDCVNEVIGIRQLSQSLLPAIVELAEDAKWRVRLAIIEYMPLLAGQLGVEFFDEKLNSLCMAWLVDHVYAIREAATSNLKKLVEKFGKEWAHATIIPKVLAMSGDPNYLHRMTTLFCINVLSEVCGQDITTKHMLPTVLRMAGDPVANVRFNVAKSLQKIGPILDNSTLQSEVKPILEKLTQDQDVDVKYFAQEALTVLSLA
# PTPN1/PTP1B = molecular target: T2, PTPN1/PTP1B (Homo sapiens, UniProt P18031); assay: PTP1B inhibition, fluorescence time-course, 10-dose IC50 (Example 2); type: biochemical
# T2 construct: The enzyme was the human truncated form (1-321), recombinantly produced in Escherichia coli; host or cells: Escherichia coli
# T2 sequence (P18031 1-321): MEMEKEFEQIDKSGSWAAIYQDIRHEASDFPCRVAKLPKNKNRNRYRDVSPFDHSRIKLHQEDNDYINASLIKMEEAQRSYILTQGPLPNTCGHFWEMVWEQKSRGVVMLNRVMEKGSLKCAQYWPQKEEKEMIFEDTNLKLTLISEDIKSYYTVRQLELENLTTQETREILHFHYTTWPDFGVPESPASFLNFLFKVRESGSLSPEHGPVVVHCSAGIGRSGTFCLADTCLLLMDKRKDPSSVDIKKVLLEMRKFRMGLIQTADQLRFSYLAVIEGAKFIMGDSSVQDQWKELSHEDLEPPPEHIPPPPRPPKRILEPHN
# PTPN6/SHP1 = molecular target: T3, PTPN6/SHP1 (Homo sapiens, UniProt P29350); assay: Phosphatase panel, DiFMUP fluorescence assay; type: biochemical
# T3 construct: purchased Recation Biology Inc
# T3 sequence (P29350 whole entry): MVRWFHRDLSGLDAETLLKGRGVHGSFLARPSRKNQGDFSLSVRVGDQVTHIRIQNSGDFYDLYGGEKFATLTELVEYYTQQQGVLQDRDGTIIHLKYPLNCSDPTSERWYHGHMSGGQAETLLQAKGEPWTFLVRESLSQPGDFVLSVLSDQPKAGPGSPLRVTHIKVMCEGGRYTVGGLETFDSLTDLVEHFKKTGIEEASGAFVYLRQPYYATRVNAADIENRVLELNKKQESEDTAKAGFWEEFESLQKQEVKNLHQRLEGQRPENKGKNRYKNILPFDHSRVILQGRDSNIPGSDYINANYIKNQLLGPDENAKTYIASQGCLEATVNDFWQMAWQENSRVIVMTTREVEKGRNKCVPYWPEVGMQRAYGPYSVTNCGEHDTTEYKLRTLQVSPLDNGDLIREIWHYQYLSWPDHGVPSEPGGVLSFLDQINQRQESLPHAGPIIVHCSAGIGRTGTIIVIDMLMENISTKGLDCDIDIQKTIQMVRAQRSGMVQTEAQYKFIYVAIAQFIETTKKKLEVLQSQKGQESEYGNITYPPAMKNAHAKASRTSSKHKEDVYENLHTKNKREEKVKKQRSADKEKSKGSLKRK
# PTPRC/CD45 = molecular target: T4, PTPRC/CD45 (Homo sapiens, UniProt P08575); assay: Phosphatase panel, DiFMUP fluorescence assay; type: biochemical
# T4 construct: purchased Recation Biology Inc
# T4 sequence (P08575 26-1306): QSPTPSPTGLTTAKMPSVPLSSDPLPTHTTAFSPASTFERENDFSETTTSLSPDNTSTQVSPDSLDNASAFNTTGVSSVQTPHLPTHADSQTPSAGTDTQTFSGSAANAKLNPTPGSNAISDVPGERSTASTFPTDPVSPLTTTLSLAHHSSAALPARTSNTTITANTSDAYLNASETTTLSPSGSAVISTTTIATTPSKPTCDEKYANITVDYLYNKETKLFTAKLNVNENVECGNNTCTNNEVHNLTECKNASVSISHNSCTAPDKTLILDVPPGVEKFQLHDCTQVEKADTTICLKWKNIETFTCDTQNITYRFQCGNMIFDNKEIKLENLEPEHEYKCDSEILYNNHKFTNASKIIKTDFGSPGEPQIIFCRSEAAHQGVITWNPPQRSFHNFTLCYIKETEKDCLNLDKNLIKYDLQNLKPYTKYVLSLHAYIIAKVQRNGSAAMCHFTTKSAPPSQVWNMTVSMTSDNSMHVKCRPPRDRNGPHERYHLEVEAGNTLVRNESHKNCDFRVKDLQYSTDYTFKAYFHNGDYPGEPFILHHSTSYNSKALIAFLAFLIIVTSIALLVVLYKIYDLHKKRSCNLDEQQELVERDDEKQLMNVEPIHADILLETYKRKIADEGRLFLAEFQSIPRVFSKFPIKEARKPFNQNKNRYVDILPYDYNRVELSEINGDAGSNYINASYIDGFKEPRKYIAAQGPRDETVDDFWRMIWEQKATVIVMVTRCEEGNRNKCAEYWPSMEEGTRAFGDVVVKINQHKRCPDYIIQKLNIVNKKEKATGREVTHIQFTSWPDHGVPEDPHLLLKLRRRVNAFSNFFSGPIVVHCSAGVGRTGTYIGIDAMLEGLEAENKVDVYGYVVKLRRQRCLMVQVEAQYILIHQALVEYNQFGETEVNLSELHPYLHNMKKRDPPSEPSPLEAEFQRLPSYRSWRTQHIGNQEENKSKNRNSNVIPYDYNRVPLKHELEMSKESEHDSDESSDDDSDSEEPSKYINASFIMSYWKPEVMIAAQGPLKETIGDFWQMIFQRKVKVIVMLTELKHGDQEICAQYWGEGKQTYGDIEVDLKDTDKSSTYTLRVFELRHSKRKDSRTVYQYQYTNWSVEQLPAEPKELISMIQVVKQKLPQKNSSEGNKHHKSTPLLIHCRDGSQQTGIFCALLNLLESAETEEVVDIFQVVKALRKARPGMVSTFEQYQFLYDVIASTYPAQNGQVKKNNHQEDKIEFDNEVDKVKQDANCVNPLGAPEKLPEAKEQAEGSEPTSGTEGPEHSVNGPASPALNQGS
# PTPN2/TC-PTP = molecular target: T5, PTPN2/TC-PTP (Homo sapiens, UniProt P17706); assay: Phosphatase panel, DiFMUP fluorescence assay; type: biochemical
# T5 construct: purchased Recation Biology Inc
# T5 sequence (P17706 1-415): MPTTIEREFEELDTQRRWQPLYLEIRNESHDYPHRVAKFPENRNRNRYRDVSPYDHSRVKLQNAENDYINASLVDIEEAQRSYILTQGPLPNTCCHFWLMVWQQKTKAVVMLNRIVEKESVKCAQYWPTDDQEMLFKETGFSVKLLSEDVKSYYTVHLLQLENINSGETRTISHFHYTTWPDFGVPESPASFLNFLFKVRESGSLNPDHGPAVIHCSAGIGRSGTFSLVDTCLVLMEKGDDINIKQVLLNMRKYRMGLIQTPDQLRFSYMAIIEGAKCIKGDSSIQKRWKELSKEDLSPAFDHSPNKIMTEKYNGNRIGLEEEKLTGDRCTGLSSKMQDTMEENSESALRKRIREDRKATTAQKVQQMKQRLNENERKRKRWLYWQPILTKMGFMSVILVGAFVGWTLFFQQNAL
# PTPN12/PTP-PEST = molecular target: T6, PTPN12/PTP-PEST (Homo sapiens, UniProt Q05209); assay: Phosphatase panel, DiFMUP fluorescence assay; type: biochemical
# T6 construct: purchased Recation Biology Inc
# T6 sequence (Q05209 1-780): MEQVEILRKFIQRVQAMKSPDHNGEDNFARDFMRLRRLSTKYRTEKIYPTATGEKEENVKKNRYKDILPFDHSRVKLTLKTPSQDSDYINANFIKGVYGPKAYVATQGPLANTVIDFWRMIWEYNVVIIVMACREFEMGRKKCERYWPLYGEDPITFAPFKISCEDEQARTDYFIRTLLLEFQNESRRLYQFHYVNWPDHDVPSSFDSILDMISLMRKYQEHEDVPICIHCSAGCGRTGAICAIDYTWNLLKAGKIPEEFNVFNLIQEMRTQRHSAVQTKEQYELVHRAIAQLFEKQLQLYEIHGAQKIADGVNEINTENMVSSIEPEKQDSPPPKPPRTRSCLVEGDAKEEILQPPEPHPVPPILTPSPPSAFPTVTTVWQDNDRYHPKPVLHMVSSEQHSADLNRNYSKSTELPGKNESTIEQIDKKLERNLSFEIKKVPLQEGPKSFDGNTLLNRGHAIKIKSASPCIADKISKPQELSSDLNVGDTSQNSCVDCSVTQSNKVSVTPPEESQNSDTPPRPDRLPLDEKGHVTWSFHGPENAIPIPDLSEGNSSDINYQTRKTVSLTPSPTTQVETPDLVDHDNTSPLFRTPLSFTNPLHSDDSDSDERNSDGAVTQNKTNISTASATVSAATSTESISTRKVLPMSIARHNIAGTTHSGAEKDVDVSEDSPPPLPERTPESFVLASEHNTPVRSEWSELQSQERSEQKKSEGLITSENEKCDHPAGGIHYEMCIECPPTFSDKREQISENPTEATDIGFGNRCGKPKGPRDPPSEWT
# [2] = molecular target: Tyrosine-protein phosphatase non-receptor type 11 (Homo sapiens, UniProt Q06124); assay: Phosphatase panel, DiFMUP fluorescence assay; type: biochemical
# Chain of Tyrosine-protein phosphatase non-receptor type 11 (Q06124 247-517): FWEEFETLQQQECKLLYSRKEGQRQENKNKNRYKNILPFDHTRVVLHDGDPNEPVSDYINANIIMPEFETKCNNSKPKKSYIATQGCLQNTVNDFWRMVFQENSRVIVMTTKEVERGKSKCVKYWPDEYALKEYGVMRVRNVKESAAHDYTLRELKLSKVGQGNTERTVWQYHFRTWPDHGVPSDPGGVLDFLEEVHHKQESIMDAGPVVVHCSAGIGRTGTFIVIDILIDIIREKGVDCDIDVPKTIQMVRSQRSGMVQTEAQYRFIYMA
compound,measurement,setting,value
"CC(C)[C@@H](CC[C@@H](C)[C@H]1CC[C@H]2[C@@H]3[C@H](O)C[C@H]4C[C@@H](NCCCNCCCCN)CC[C@]4(C)[C@H]3CC[C@]12C)OS(=O)(=O)O (single isomer, unassigned) [Ent-01, Squalamine]","number of significant features, down-regulated, fold change threshold 4x","stomach tissues; old vs young mice, both treated, threshold 4x",69
same,"number of significant features, down-regulated, fold change threshold 8x","stomach tissues; old vs young mice, both treated, threshold 8x",36
same,"number of significant features, down-regulated, fold change threshold 16x","stomach tissues; old vs young mice, both treated, threshold 16x",27
same,"number of significant features, down-regulated, fold change threshold 4x","stomach tissues; treatment vs control, old mice, threshold 4x",66
same,"number of significant features, down-regulated, fold change threshold 8x","stomach tissues; treatment vs control, old mice, threshold 8x",25
same,"number of significant features, down-regulated, fold change threshold 16x","stomach tissues; treatment vs control, old mice, threshold 16x",11
same,"number of significant features, down-regulated, fold change threshold 8x","stomach tissues; treatment vs control, young mice, threshold 8x",47
same,"number of significant features, down-regulated, fold change threshold 16x","stomach tissues; treatment vs control, young mice, threshold 16x",12
same,"number of significant features, up-regulated, fold change threshold 4x","stomach tissues; treatment vs control, young mice, up-regulated, threshold 4x",58
same,"number of significant features, up-regulated, fold change threshold 8x","stomach tissues; treatment vs control, young mice, up-regulated, threshold 8x",38
same,"number of significant features, up-regulated, fold change threshold 16x","stomach tissues; treatment vs control, young mice, up-regulated, threshold 16x",28
"CC1(C(=O)O)C2CCC(O2)C1(C)C(=O)O (centres unmarked) [Canthardic Acid, Cantharidic acid, reference compound]",IC50,"[1]; Compound IC50 (M) PP2A Alpha/PP2R1A Complex, Table 5B",1.7e-08 M
same,IC50,"[1]; inhibitory activity PP2A Alpha/PP2R1A Complex, Table 18A",2.78e-08 M
same,IC50,"[1]; inhibitory activity PP2A Alpha/PP2R1A Complex, Table 19A",3.01e-08 M
[2H]C([2H])([2H])C([2H])(C(CC[C@@H](C)[C@H]1CCC2C3C(CC[C@@]21C)[C@@]1(C)CC[C@H](NCCCNCCCCNCCCN)C[C@@H]1C[C@H]3O)OS(=O)(=O)O)C([2H])([2H])[2H] (some centres unmarked) [Compound D7-1436],Slope (signal/min),PTPN1/PTP1B; Conc 1.00E−04 M,−161 signal/min
same,Slope (signal/min),PTPN1/PTP1B; Conc 1.11E−05 M,−319 signal/min
same,Slope (signal/min),PTPN1/PTP1B; Conc 1.23E−06 M,34760 signal/min
same,Slope (signal/min),PTPN1/PTP1B; Conc 1.37E−07 M,40150 signal/min
same,Slope (signal/min),PTPN1/PTP1B; Conc 1.52E−08 M,43819 signal/min
same,Slope (signal/min),PTPN1/PTP1B; Conc 3.33E−05 M,−362 signal/min
same,Slope (signal/min),PTPN1/PTP1B; Conc 3.70E−06 M,8429 signal/min
same,Slope (signal/min),PTPN1/PTP1B; Conc 4.12E−07 M,41755 signal/min
same,Slope (signal/min),PTPN1/PTP1B; Conc 4.57E−08 M,43697 signal/min
same,Slope (signal/min),PTPN1/PTP1B; Conc 5.08E−09 M,44655 signal/min
same,HILLSLOPE,PTPN1/PTP1B; Table 5A,−2.50
"CCc1oc2cc(S(=O)(=O)Nc3ccc(S(=O)(=O)Nc4nccs4)cc3)ccc2c1C(=O)c1cc(Br)c(O)c(Br)c1 [PTP1B Inhibitor, 3-(3,5-Dibromo-4-hydroxy-benzoyl)-2-ethyl-benzofuran-6-sulfonicacid-(4-(thiazol-2-ylsulfamyl)-phenyl)-amide, reference compound]",IC50,"PTPN6/SHP1; Table 5B, read-out: Compound IC50 (M) PTPN6/SHP1",5.75e-06 M
same,IC50,"PTPN6/SHP1; Table 18A, read-out: inhibitory activity PTPN6/SHP1",3.47e-06 M
same,IC50,"PTPN6/SHP1; Table 19A, read-out: inhibitory activity PTPN6/SHP1",3.67e-06 M
same,IC50,"PTPRC/CD45; Table 5B, read-out: Compound IC50 (M) PTPRC/CD45",5.7e-05 M
same,IC50,"PTPRC/CD45; Table 18A, read-out: inhibitory activity PTPRC/CD45",2.8e-05 M
same,IC50,"PTPRC/CD45; Table 19A, read-out: inhibitory activity PTPRC/CD45",2.66e-05 M
same,IC50,"PTPN2/TC-PTP; Table 5C, read-out: Compound IC50 (M) PTPN2/TC-PTP",1.34e-05 M
same,IC50,"PTPN2/TC-PTP; Table 18B, read-out: inhibitory activity PTPN2/TC-PTP",7.53e-06 M
same,IC50,"PTPN2/TC-PTP; Table 19B, read-out: inhibitory activity PTPN2/TC-PTP",5.86e-06 M
same,IC50,"PTPN12/PTP-PEST; Table 5C, read-out: Compound IC50 (M) PTPN12/PTP-PEST",2.99e-05 M
same,IC50,"PTPN12/PTP-PEST; Table 18B, read-out: inhibitory activity PTPN12/PTP-PEST",2.16e-06 M
same,IC50,"PTPN12/PTP-PEST; Table 19B, read-out: inhibitory activity PTPN12/PTP-PEST",1.21e-06 M
same,IC50,[2],1.82 µM
